This is an account of results in US9187484B2 (Southern Research Institute, priority 2012, dated 2015).

One assay has as its target T1, LRRK2 (G2019S) (Homo sapiens, UniProt Q5S007, G2019S).
T1 construct: Recombinant GST-LRRK2 (delta970), purified from baculovirus infected insect cells (SF9); GST (N); host or cells: baculovirus infected insect cells (SF9)
As to the kind of experiment: LRRK2 inhibition, radiometric kinase assay with recombinant GST-LRRK2 (delta970) and peptide substrate. The assay is classed as biochemical. To be noted: GST-LRRK2 (delta970) G2019S 30 nM, ATP ~52 μM (Km), 30 min at 30° C. The gist of the method: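 Recombinant GST-LRRK2 (delta970) from SF9 cells, wild-type or G2019S, at 30 nM in 50 mM Tris HCl pH 7.4, 1 mM EDTA with 50 μM peptide substrate and 0.1% DMSO. ATP at Km (˜92 μM WT, ˜52 μM G2019S) with 10 mM MgCl2 and gamma-32-P label; 30 min at 30° C. Phosphocellulose capture, scintillation counting.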

Another assay relates to WT-LRRK2 or G2019S-LRRK2. As to the kind of experiment: Inhibition of LRRK2 phosphorylation (pS935 antibody) in lysates of transfected HEK-293T cells. The assay is classed as cell-based. To be noted: HEK-293T cells transiently transfected with either WT-LRRK2 or G2019S-LRRK2. The text has this:
To test whether Example 90 and Example 34 can inhibit LRRK2 phosphorylation, an antibody commercially available from Epitomics directed against the serine residue number 935 on LRRK2 from lysates generated from HEK-293T cells transiently transfected with either WT-LRRK2 or G2019S-LRRK2 protein.

The subject of a further assay is G2019S-LRRK2. As to the kind of experiment: LPS-induced TNF-alpha in primary macrophages over-expressing G2019S-LRRK2. It counts as cell-based, mice. Conditions: 5 μM 1 hour prior to LPS stimulation (100 ng/ml), TNF-alpha measured 6 hours later. The text has this:
Recently, high levels of LRRK2 expression in primary microglia that are the immune cells of the nervous system have been discovered (Moehle et al., J. Neuroscience (2012), PMID 22302802). […] More recently, LRRK2 has also been detected in primary macrophages, specifically macrophages isolated after thioglycolate exposures in mice. To assess whether Example 90 can inhibit the G2019S-LRRK2 induced increase in TNF-alpha to wild-type levels of TNF-alpha induction by LPS, primary macrophages were exposed in culture to 5 μM 1 hour prior to LPS stimulation (100 ng/ml), and TNF-alpha levels were measured 6 hours later.

T1 sequence (Q5S007 970-2527 G2019S limits assumed): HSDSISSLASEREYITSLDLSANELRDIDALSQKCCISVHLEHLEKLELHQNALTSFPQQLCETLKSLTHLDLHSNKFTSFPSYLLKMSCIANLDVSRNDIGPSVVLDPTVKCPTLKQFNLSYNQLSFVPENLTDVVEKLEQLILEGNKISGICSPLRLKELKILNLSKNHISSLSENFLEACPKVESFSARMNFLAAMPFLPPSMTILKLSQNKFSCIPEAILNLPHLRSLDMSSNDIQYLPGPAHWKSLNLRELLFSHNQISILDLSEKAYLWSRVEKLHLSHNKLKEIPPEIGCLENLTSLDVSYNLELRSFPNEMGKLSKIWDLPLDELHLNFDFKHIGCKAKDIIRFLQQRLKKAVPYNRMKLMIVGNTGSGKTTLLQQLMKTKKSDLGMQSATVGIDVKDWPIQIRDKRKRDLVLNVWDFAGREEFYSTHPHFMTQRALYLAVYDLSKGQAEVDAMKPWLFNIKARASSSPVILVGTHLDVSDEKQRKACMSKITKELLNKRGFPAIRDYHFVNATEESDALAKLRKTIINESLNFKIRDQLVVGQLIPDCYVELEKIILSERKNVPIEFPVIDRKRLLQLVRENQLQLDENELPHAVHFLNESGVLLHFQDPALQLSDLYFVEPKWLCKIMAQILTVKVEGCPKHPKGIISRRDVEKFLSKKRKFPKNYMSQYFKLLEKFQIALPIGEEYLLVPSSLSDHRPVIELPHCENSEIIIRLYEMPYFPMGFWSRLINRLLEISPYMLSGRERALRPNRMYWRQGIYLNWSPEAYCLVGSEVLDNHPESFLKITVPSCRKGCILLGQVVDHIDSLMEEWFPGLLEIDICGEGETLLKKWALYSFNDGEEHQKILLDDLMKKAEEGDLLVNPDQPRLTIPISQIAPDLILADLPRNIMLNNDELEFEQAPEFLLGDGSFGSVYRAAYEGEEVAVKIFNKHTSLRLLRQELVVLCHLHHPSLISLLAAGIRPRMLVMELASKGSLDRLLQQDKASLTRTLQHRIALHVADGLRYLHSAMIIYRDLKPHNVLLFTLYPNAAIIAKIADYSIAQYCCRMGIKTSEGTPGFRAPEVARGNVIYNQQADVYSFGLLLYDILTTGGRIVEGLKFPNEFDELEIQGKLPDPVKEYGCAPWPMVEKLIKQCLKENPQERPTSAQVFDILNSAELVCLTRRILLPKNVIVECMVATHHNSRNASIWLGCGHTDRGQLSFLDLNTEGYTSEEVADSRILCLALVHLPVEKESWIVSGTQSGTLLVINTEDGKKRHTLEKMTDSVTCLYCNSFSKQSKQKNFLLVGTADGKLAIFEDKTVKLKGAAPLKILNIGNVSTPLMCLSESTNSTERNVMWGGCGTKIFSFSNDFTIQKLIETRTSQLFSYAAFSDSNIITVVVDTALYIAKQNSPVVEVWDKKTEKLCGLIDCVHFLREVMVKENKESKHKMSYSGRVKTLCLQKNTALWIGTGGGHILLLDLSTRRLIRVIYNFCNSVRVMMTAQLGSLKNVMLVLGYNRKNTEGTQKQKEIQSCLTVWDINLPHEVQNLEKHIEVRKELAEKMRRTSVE

In the case of `CC(Sc1ccc2nnc(-c3cccs3)n2n1)C(=O)N1CCCCC1` (stereo not drawn) [Example 90, 1-(piperidin-1-yl)-2-((3-(thiophen-2-yl)-[1,2,4]triazolo[4,3-b]pyridazin-6-yl)thio)propan-1-one], on LRRK2 (G2019S), the IC50 (commonly the point on the concentration scale where inhibition reaches its midpoint) is below 100 nM. The “levels of pS935 on LRRK2” value in the assay on WT-LRRK2 or G2019S-LRRK2 is “partially inhibited”. In addition, the “TNF-alpha levels (G2019S-LRRK2 induced increase)” value with G2019S-LRRK2 was “successfully returned G2019S-LRRK2 over-expressing cells back to WT levels”.

For the molecule `CCC(Sc1ccc2nnc(-c3cccs3)n2n1)C(=O)N1CCCCC1` (stereo not drawn) [Example 34, 1-(piperidin-1-yl)-2-((3-(thiophen-2-yl)-[1,2,4]triazolo[4,3-b]pyridazin-6-yl)thio)butan-1-one], on LRRK2 (G2019S), the IC50 is below 100 nM. Besides, the “levels of pS935 on LRRK2” value in the assay on WT-LRRK2 or G2019S-LRRK2 was “partially inhibited”.

`NC(=O)CSc1ccc2nnc(-c3ccccn3)n2n1` [Example 16, 2-((3-(pyridin-2-yl)-[1,2,4]triazolo[4,3-b]pyridazin-6-yl)thio)acetamide]: on LRRK2 (G2019S), the IC50 is at least 5000 nM.

On to `CCOC(=O)C1CCCN(C(=O)C(CC)Sc2ccc3nnc(-c4cccs4)n3n2)C1` (stereo not drawn) [Example 103, ethyl 1-(2-((3-(thiophen-2-yl)-[1,2,4]triazolo[4,3-b]pyridazin-6-yl)thio)butanoyl)piperidine-3-carboxylate], for which, on LRRK2 (G2019S), the half-inhibitory concentration (IC50) was 1000 to 5000 nM.

Consider `CCC(Sc1ccc2nnc(-c3ccc(C(F)(F)F)cc3)n2n1)C(N)=O` (stereo not drawn) [Example 78, 2-((3-(4-(trifluoromethyl)phenyl)-[1,2,4]triazolo[4,3-b]pyridazin-6-yl)thio)butanamide], for which, on LRRK2 (G2019S), the IC50 was at least 5000 nM.

`Cc1ccc(-c2nnc3ccc(SCC(=O)O)nn23)cc1` [Example 13, 2-((3-(p-tolyl)-[1,2,4]triazolo[4,3-b]pyridazin-6-yl)thio)acetic acid]: on LRRK2 (G2019S), the IC50 lay within 1000 to 5000 nM.

Regarding `O=C(O)CSc1ccc2nnc(-c3ccco3)n2n1` [Example 28, 2-((3-(furan-2-yl)-[1,2,4]triazolo[4,3-b]pyridazin-6-yl)thio)acetic acid], the IC50 at LRRK2 (G2019S) is at least 5000 nM.

As for `CCC(Sc1ccc2nnc(-c3cccc(F)c3)n2n1)C(N)=O` (stereo not drawn) [Example 81, 2-((3-(3-fluorophenyl)-[1,2,4]triazolo[4,3-b]pyridazin-6-yl)thio)butanamide], the half-maximal inhibitory concentration (IC50) on LRRK2 (G2019S) is 100 to 1000 nM.

Turning to `CCC(Sc1ccc2nnc(-c3ccc(OC)cc3)n2n1)C(=O)N1CCCCC1` (stereo not drawn) [Example 67, 2-((3-(4-methoxyphenyl)-[1,2,4]triazolo[4,3-b]pyridazin-6-yl)thio)-1-(piperidin-1-yl)butan-1-one], at LRRK2 (G2019S), the IC50 lay in the range of 100 to 1000 nM.

As for `NC(=O)CS(=O)(=O)c1ccc2nnc(-c3cccs3)n2n1` [Example 91, 2-((3-(thiophen-2-yl)-[1,2,4]triazolo[4,3-b]pyridazin-6-yl)sulfonyl)acetamide], the IC50 on LRRK2 (G2019S) lay within 1000 to 5000 nM.

As for `CCC(Sc1ccc2nnc(-c3cccs3)n2n1)C(=O)N1CCOCC1` (stereo not drawn) [Example 47, 1-morpholino-2-((3-(thiophen-2-yl)-[1,2,4]triazolo[4,3-b]pyridazin-6-yl)thio)butan-1-one], the IC50 at LRRK2 (G2019S) lay in the range of 100 to 1000 nM.

For `CCC(Sc1ccc2nnc(-c3ccsc3)n2n1)C(=O)N1CCCCC1` (stereo not drawn) [Example 64, 1-(piperidin-1-yl)-2-((3-(thiophen-3-yl)-[1,2,4]triazolo[4,3-b]pyridazin-6-yl)thio)butan-1-one], the IC50 on LRRK2 (G2019S) lay in the range of 100 to 1000 nM.
